Assay results reported in US20090181972A1, “Novel Inhibitors of Cysteine Proteases, the Pharmaceutical Compositions Thereof and their Therapeutic Applications” (priority 2005, published 2009).

What was measured:
[1] = biological target: T1, Uch-L3 (Homo sapiens, UniProt P15374); test: UCH-L3 activity assay; assay type: biochemical; settings: 400 nM Ub-AMC, 13 pM enzyme; pre-incubated 30 minutes at 25° C., 60 minutes at 37° C.; sigmoidal fit
T1 sequence (P15374 1-230): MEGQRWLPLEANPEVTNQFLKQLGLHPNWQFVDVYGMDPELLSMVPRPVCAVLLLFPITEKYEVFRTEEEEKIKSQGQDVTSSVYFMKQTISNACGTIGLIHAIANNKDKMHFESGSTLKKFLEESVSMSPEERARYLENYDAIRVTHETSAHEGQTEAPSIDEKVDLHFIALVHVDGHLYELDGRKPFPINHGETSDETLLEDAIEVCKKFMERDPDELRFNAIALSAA
Protocol: (§1) Uch-L3 was diluted in USP buffer (50 mM Tris HCl; 0.5 mM EDTA; 5 mM DTT; 0.01% Triton X-100; Bovine Serum Albumin 0.05 mg.ml^−1 pH 7.6). Compounds stocks (100 mM) were stored at −20° C. in DMSO. Compounds were tested at the following final concentrations: 100 μM; 33.3 μM; 11.1 μM; 3.7 μM; 1.23 μM; 412 nM; 137 nM; 45.7 nM; 15.2 nM; 5 nM.
(§2) Reactions were performed as duplicates in Black LJL 96 well plates (HE microplates; Molecular Devices; 20 μl final reaction volume). The substrate concentration for Uch-L3 was 400 nM Ub-AMC (Boston Biochem). The concentration of the enzyme (Uch-L3) in specificity assays was 13 pM. The concentrations were determined in order to perform specificity assays under initial velocities at fixed substrate concentration. Compounds were pre-incubated with enzymes for 30 minutes at 25° C. Reactions were initiated by addition of substrate to the plates containing the enzymes (+/− compounds) diluted in assay buffer. Reactions were incubated for 60 minutes at 37° C. Reactions were stopped by adding acetic acid (100 mM final). Readings were performed on a Pherastar Fluorescent Reader (BMG). δ Emission 380 nm; δ Excitation=460 nm. Data (mean values +/− standard deviation) were analyzed as % of control (no compound) and plotted as percentage versus the Log of the compound concentration using GraphPad (Prism). Data were fitted to a sigmoidal model (variable slope).

[2] = biological target: T2, SENP1 (Homo sapiens, UniProt Q9P0U3); test: SENP1 activity assay; assay type: biochemical; settings: MBP-SENP1 1.8 nM, 200 nM SUMO-AMC; pre-incubated 30 minutes at 25° C., 60 minutes at 37° C.; sigmoidal fit
T2 construct: made in house; host or cells: E. coli BL21
T2 sequence (Q9P0U3 1-644): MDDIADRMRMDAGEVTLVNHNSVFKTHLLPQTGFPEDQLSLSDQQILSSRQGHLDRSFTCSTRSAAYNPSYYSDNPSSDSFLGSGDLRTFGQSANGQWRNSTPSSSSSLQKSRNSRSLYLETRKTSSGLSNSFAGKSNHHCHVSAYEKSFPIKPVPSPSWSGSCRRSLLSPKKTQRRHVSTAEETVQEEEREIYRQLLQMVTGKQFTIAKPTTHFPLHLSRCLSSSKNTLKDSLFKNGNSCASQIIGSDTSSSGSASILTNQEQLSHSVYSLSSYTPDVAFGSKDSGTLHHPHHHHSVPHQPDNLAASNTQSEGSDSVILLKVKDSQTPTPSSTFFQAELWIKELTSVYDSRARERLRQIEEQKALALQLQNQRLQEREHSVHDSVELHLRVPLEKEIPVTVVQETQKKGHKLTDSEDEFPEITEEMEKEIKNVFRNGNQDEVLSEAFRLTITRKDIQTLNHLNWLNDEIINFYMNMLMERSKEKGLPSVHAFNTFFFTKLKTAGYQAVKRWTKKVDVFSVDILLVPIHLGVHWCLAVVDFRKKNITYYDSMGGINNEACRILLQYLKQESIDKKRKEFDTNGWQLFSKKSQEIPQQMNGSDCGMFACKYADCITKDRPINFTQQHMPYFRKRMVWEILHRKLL
Protocol: The cDNA encoding SENP1 was obtained by PCR amplification from placenta mRNA. SENP1 cDNA was subcloned by PCR into a bacterial expression vector (pMAL-C2X; New England BioLabs, Inc). The sequence was ascertained by sequencing of the entire open reading frame. pMAL-C2-SENP1 was transformed into BL21 cells and grown in LB-ampicillin medium supplemented with glucose (2 g.l^−1). Fusion protein expression was induced by IPTG (0.5 mM). Bacterial cell lysates were harvested and lyzed in lysis buffer (Tris HCl 20 mM pH 7.4; 1 mM EDTA; 200 mM NaCl; 0.5% Triton X-100; 10 % glycerol; Protease Inhibitor Cocktail) followed by sonication. Proteins were affinity purified on amylose affinity resin (New England BioLabs, Inc). Bound materials were extensively washed in wash buffer (20 mM Tris HCl pH 7.4; 200 mM NaCl; 1 mM EDTA; 0.5% Triton X-100; 10% glycerol) and eluted from the resin in 10 mM maltose-containing wash buffer. Proteins were dialyzed in dialysis buffer (Tris HCl pH 7.6 20 mM; NaCl 200 mM; DTT 1 mM; EDTA 1 mM; 10% Glycerol). Proteins purifications were analyzed on 4-12% NuPAGE (Invitrogen).
as §1, with “MBP-SENP1” for “Uch-L3”, “SENP1” for “USP”, “0.01 %” for “0.01%”
as §2, with “SENP1” for “Uch-L3”, “200” for “400”, “SUMO-AMC (Chem. Biol., 2003, 10, p. 837-846)” for “Ub-AMC”, “(SENP1)” for “(Uch-L3)”, “1.8 nM.” for “13 pM.”, “λ” for “δ”

Row | IC50 [1] | IC50 [2] | Molecule
1 | 1800 nM | 35700 nM | CCc1nnc2nc3c(nn12)C(=O)c1cc(OC)c(OC)cc1-3 [Example 5b/A, 1-Ethyl-6,7-dimethoxy-2,3,4,10,10a-pentaaza-cyclopenta[b]fluoren-9-one]
2 | 800 nM |  | CC(C)c1nnc2nc3c(nn12)C(=O)c1ccccc1-3 [Example 1l/A, 1-lsopropyl-2,3,4,10,10a-pentaaza-cyclopenta[b]fluoren-9-one]
3 | 323 nM | > 100000 nM | 6-(7)-Chloro-1-methyl-2,3,4,10,10a-pentaaza-cyclopenta[b]fluoren-9-one [Example 3/A]
4 | 131 nM | 1280 nM | CCc1nnc2nc3c(nn12)-c1cc(OC)c(OC)cc1C3=O [Example 5b/B, 3-Ethyl-6,7-dimethoxy-1,2,3a,4,10-pentaaza-cyclopenta[b]fluoren-9-one]
